According to the supplement of paper PMC13380429:

Columns and labels:
Settings in all cases: 72 h
Caco-2 [1] = experiment: cell viability relative to DMSO; higher = less toxic
Calu-3 [2] = experiment: as above
HepG2 [3] = experiment: as above
U2OS [4] = experiment: as above
Vero E6 [5] = experiment: as above
Caco-2 [6] = experiment: relative viability EC50 (midpoint between 100% and the lowest measured viability); higher = less toxic
Calu-3 [7] = experiment: as above
HepG2 [8] = experiment: as above
U2OS [9] = experiment: as above
Vero E6 [10] = experiment: as above
Caco-2 [11] = experiment: drug sensitivity score (DSS) for viability; higher = more toxic; extreme values may be limits of the assay
Calu-3 [12] = experiment: as above
HepG2 [13] = experiment: as above
U2OS [14] = experiment: as above
Vero E6 [15] = experiment: as above

Row | SMILES | cell viability (Caco-2 [1]; 1 nM) | cell viability (Caco-2 [1]; 10 nM) | cell viability (Caco-2 [1]; 100 nM) | cell viability (Caco-2 [1]; 1000 nM) | cell viability (Caco-2 [1]; 10000 nM) | cell viability (Calu-3 [2]; 1 nM) | cell viability (Calu-3 [2]; 10 nM) | cell viability (Calu-3 [2]; 100 nM) | cell viability (Calu-3 [2]; 1000 nM) | cell viability (Calu-3 [2]; 10000 nM) | cell viability (HepG2 [3]; 1 nM) | cell viability (HepG2 [3]; 10 nM) | cell viability (HepG2 [3]; 100 nM) | cell viability (HepG2 [3]; 1000 nM) | cell viability (HepG2 [3]; 10000 nM) | cell viability (U2OS [4]; 1 nM) | cell viability (U2OS [4]; 10 nM) | cell viability (U2OS [4]; 100 nM) | cell viability (U2OS [4]; 1000 nM) | cell viability (U2OS [4]; 10000 nM) | cell viability (Vero E6 [5]; 1 nM) | cell viability (Vero E6 [5]; 10 nM) | cell viability (Vero E6 [5]; 100 nM) | cell viability (Vero E6 [5]; 1000 nM) | cell viability (Vero E6 [5]; 10000 nM) | relative viability EC50 (Caco-2 [6]) | relative viability EC50 (Calu-3 [7]) | relative viability EC50 (HepG2 [8]) | relative viability EC50 (U2OS [9]) | relative viability EC50 (Vero E6 [10]) | drug sensitivity score (Caco-2 [11]) | drug sensitivity score (Calu-3 [12]) | drug sensitivity score (HepG2 [13]) | drug sensitivity score (U2OS [14]) | drug sensitivity score (Vero E6 [15])
1 | O=C(O)CNC(=O)c1nc(Cl)c2ccccc2c1O [FG-2216] | 98.2% | 102% | 99.3% | 94.1% | 93.5% | 106% | 98.5% | 96.6% | 103% | 103% | 101% | 98% | 96.4% | 99.1% | 95.3% | 107% | 98% | 101% | 91.5% | 93.2% | 100% | 99.4% | 104% | 102% | 99.5% | > 10 µM | > 10 µM | > 10 µM | > 10 µM | > 10 µM | 0 | 0 | 0 | 0 | 0
2 | C[C@H]1CO[C@@H]2Cn3cc(C(=O)NCc4ccc(F)cc4F)c(=O)c(O)c3C(=O)N12 | 107% | 90.1% | 98% | 98.5% | 81.6% | 109% | 94% | 104% | 95.2% | 92.2% | 104% | 112% | 97.1% | 112% | 56.9% | 95.6% | 92.4% | 99.4% | 92.2% | 88.5% | 88.9% | 99.7% | 94.3% | 97.5% | 89.6% | > 10 µM | > 10 µM |  | > 10 µM | > 10 µM | 0.6 | 0 | 1.6 | 0 | 0
3 | N=C(N)SCCc1c[nH]cn1 [imetit] | 97.2% | 99.1% | 97% | 100% | 93.5% | 97.8% | 109% | 97% | 93.7% | 87.8% | 112% | 111% | 95.9% | 95.2% | 112% |  |  |  |  |  | 103% | 103% | 103% | 97.1% | 101% | > 10 µM | > 10 µM | > 10 µM |  | > 10 µM | 0 | 0.1 | 0 |  | 0
4 | C=C[C@]1(C)C[C@@H](OC(=O)CSC(C)(C)CNC(=O)[C@H](N)C(C)C)[C@]2(C)[C@H](C)CC[C@]3(CCC(=O)[C@H]32)[C@@H](C)[C@@H]1O [valnemulin] | 99.4% | 93.3% | 91.8% | 94.5% | 80.9% | 94.3% | 98.6% | 102% | 101% | 98.9% | 98.6% | 104% | 93.7% | 88.1% | 63% | 97.4% | 99.4% | 97.7% | 96.3% | 79.5% | 97.1% | 98.7% | 103% | 95.1% | 88.3% | > 10 µM | > 10 µM |  | > 10 µM | > 10 µM | 0.7 | 0 | 3 | 1.1 | 0.2
5 | CCn1cc(-c2cccc(C(F)(F)F)c2)c2sc(C(=N)NC3CCS(=O)(=O)CC3)cc2c1=O [I-BRD9] | 111% | 102% | 97% | 97.8% | 93.5% | 112% | 99.5% | 106% | 95.4% | 79.5% | 94.4% | 99.2% | 98.6% | 97.5% | 63.4% | 103% | 102% | 99.1% | 99.5% | 92% | 95.1% | 95.8% | 98.7% | 98.1% | 92.3% | > 10 µM | > 10 µM |  | > 10 µM | > 10 µM | 0 | 1.2 | 2.1 | 0 | 0
6 | CCC1(c2ccccc2)C(=O)N(COC)C(=O)N(COC)C1=O [eterobarb] | 102% | 90.8% | 95.3% | 105% | 111% | 111% | 88.2% | 110% | 88.5% | 105% | 105% | 114% | 97.4% | 100% | 88.4% |  |  |  |  |  | 112% | 110% | 102% | 106% | 86.8% | > 10 µM | > 10 µM | > 10 µM |  | > 10 µM | 0 | 0 | 0 |  | 0
7 | Cc1c(Cl)cccc1S(=O)(=O)Nc1nc(CC(=O)N2CCN(C)CC2)cs1 [BVT-2733] | 106% | 92.6% | 100% | 106% | 98.3% | 108% | 102% | 92.5% | 102% | 106% | 104% | 101% | 92.7% | 104% | 97.4% |  |  |  |  |  | 103% | 101% | 107% | 102% | 94.6% | > 10 µM | > 10 µM | > 10 µM |  | > 10 µM | 0 | 0 | 0 |  | 0
8 | O=c1[nH]nc2c3c(cccc13)N=C(CN1Cc3ccccc3C1)N2 [E7449] | 127% | 104% | 102% | 99% | 89.1% | 109% | 99.1% | 98.6% | 97.6% | 88.6% | 95% | 103% | 98.6% | 95.9% | 59.8% | 105% | 106% | 106% | 94.7% | 87.3% | 102% | 100% | 96.3% | 96.3% | 83.7% | > 10 µM | > 10 µM |  | > 10 µM | > 10 µM | 0 | 0.1 | 2.7 | 0.3 | 0.6
9 | Cc1c(O)c(=O)n(-c2ccccc2)n1C [4-hydroxy-phenazone] | 98.7% | 98.7% | 90.2% | 92.3% | 90.6% | 107% | 105% | 101% | 96.8% | 102% | 102% | 103% | 110% | 96.6% | 115% |  |  |  |  |  | 98% | 98.3% | 103% | 103% | 92.9% | > 10 µM | > 10 µM | > 10 µM |  | > 10 µM | 0 | 0 | 0 |  | 0
10 | O=C(NC1CCN(Cc2ccccc2)CC1)c1ccc(I)cc1 [4-IBP] | 104% | 101% | 99.4% | 103% | 88.8% | 104% | 104% | 104% | 95.9% | 102% | 94.5% | 108% | 104% | 105% | 68% | 102% | 99.9% | 101% | 97.6% | 98.8% | 109% | 106% | 107% | 101% | 93.2% | > 10 µM | > 10 µM |  | > 10 µM | > 10 µM | 0 | 0 | 1.2 | 0 | 0
11 | CC#C[C@@H](CC(=O)O)c1ccc(OCc2cccc(-c3ccc(C(F)(F)F)cc3)c2)cc1 [AMG-837] | 102% | 95.3% | 97.7% | 94.9% | 93.2% | 104% | 104% | 110% | 92.7% | 94.9% |  |  |  |  |  | 101% | 94.7% | 99.9% | 95% | 93.9% | 97.5% | 100% | 95.8% | 102% | 97.4% | > 10 µM | > 10 µM |  | > 10 µM | > 10 µM | 0 | 0 |  | 0 | 0
12 | COc1cc([S+](C)[O-])ccc1-c1nc2cccnc2[nH]1 (stereo not drawn) [sulmazole] | 115% | 98.5% | 98.8% | 99.5% | 112% | 108% | 90.3% | 90.7% | 93.8% | 104% | 106% | 103% | 95.5% | 102% | 100% |  |  |  |  |  | 98% | 102% | 98.5% | 97.8% | 101% | > 10 µM | > 10 µM | > 10 µM |  | > 10 µM | 0 | 0 | 0 |  | 0
